Assay results taken from patent publication US12723063B2, “GIPR-agonist compounds” (Eli Lilly and Company, priority 2019, dated 2026).
*1 amine or outer side, *2 acyl side, *3 side chain or, on linkers, in order; H or OH if unused. Where a SMILES comes first, the peptide text is derived from it. Side-chain parts run from the residue outwards. [ ]: non-standard residue; d: D form. The star is where a group is joined. C20 diacid = O=C(O)CCCCCCCCCCCCCCCCCCC(=O)*; C18 diacid = O=C(O)CCCCCCCCCCCCCCCCC(=O)*; αMePhe(2-F) = C[C@](N)(Cc1ccccc1F)C(=O)O; γGlu = O=C(O)[C@H](CCC(=O)[*:2])N[*:1]; 4Pal = N[C@@H](Cc1ccncc1)C(=O)O; αMeL = CC(C)C[C@](C)(N)C(=O)O; Orn = NCCC[C@H](N)C(=O)O; AEEA = NCCOCCOCC(=O)O; Aib = CC(C)(N)C(=O)O

How the values were obtained:
human GIPR = biological target: T1, human GIPR (Homo sapiens, UniProt P48546); test: [125I]-GIP binding, SPA with WGA beads, 0.1% bacitracin; conditions: geometric mean, read-out: hGIPR Ki
T1 construct: expressed in transfected cells; crude membranes
T1 sequence (P48546 22-466): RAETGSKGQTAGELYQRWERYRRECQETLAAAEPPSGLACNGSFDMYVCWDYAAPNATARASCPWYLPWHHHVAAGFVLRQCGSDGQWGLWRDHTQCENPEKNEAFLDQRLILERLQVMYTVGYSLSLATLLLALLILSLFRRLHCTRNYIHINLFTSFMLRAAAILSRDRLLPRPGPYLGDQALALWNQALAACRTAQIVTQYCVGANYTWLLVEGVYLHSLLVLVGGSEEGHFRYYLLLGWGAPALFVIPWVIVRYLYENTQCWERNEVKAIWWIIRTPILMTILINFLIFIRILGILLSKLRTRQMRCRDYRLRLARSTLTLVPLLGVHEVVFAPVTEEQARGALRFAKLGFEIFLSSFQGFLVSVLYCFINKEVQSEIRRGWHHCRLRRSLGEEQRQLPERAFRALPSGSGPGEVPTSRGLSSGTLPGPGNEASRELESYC
In short: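 Ki values are geometric means (SEM, n independent days), derived from four-parameter nonlinear regression of IC50. Membranes came from hGIPR-expressing CHO cells.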

human GLP-1R = biological target: T2, human GLP-1R (Homo sapiens, UniProt P43220); test: [125I]-GLP-1 binding, SPA with WGA beads, 0.1% bacitracin; conditions: geometric mean, read-out: hGLP1R Ki
T2 construct: expressed in transfected cells; crude membranes
In short: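 Binding buffer was 25 mM HEPES pH 7.4 with 2.5 mM CaCl2, 1 mM MgCl2, 0.1% (w/v) bacitracin, 0.003% Tween-20 and EDTA-free protease inhibitors. Four-parameter regression gave IC50, converted to Ki (geometric mean, SEM, n independent days).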

T2 sequence (P43220 24-463): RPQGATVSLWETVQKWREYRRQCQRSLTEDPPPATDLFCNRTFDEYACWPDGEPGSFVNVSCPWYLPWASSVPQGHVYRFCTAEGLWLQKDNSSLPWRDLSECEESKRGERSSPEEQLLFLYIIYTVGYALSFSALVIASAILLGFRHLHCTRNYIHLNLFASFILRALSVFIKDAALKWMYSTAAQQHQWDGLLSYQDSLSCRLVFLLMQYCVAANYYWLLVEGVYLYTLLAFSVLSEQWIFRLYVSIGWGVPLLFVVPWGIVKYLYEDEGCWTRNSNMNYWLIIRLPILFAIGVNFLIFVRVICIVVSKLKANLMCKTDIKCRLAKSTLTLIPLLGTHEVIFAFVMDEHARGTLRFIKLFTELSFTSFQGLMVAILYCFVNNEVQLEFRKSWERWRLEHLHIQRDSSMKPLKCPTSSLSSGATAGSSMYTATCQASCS

Compound	Ki (human GIPR) [nM]	Ki (human GLP-1R) [nM]
CC[C@H](C)[C@H](NC(=O)[C@H](CO)NC(=O)[C@H](Cc1ccc(O)cc1)NC(=O)[C@H](CC(=O)O)NC(=O)[C@H](CO)NC(=O)[C@@H](NC(=O)[C@](C)(Cc1ccccc1F)NC(=O)[C@@H](NC(=O)CNC(=O)[C@H](CCC(=O)O)NC(=O)C(C)(C)NC(=O)[C@@H](N)Cc1ccc(O)cc1)[C@@H](C)O)[C@@H](C)CC)C(=O)N[C@@H](C)C(=O)N[C@@H](CC(C)C)C(=O)N[C@@H](CC(=O)O)C(=O)N[C@@H](CCCCN)C(=O)N[C@H](C(=O)N[C@@H](Cc1c[nH]cn1)C(=O)N[C@@H](CCC(N)=O)C(=O)NC(C)(C)C(=O)N[C@@H](CCC(=O)O)C(=O)N[C@@H](Cc1ccccc1)C(=O)N[C@H](C(=O)N[C@@H](CC(N)=O)C(=O)N[C@@H](Cc1ccc(O)cc1)C(=O)N[C@@H](CCCCNC(=O)COCCOCCNC(=O)COCCOCCNC(=O)CC[C@H](NC(=O)CCCCCCCCCCCCCCCCCCC(=O)O)C(=O)O)C(=O)N[C@@H](CC(C)C)C(=O)N[C@@H](C)C(=O)NCC(=O)NCC(=O)N1CCC[C@H]1C(=O)N[C@@H](CO)C(=O)N[C@@H](CO)C(=O)NCC(=O)N[C@@H](C)C(=O)N1CCC[C@H]1C(=O)N1CCC[C@H]1C(=O)N1CCC[C@H]1C(=O)N[C@@H](CO)C(N)=O)C(C)C)[C@@H](C)CC [Example 98] (H-Y[Aib]EGT[αMePhe(2-F)]ISDYSIALDKIHQ[Aib]EFVNYK([AEEA-AEEA-γGlu-C20 diacid])LAGGPSSGAPPPS-NH2)	0.0195	311
CC[C@H](C)[C@H](NC(=O)[C@H](CO)NC(=O)[C@H](Cc1ccc(O)cc1)NC(=O)[C@H](CC(=O)O)NC(=O)[C@H](CO)NC(=O)[C@@H](NC(=O)[C@H](Cc1ccccc1)NC(=O)[C@@H](NC(=O)CNC(=O)[C@H](CCC(=O)O)NC(=O)[C@@H](C)NC(=O)[C@@H](N)Cc1ccc(O)cc1)[C@@H](C)O)[C@@H](C)CC)C(=O)N[C@@H](CC(C)C)C(=O)N[C@@H](CC(C)C)C(=O)N[C@@H](CC(=O)O)C(=O)N[C@@H](CCCCN)C(=O)N[C@@H](CCCCNC(=O)COCCOCCNC(=O)COCCOCCNC(=O)CC[C@H](NC(=O)CCCCCCCCCCCCCCCCCCC(=O)O)C(=O)O)C(=O)N[C@@H](Cc1c[nH]cn1)C(=O)N[C@@H](CCC(N)=O)C(=O)N[C@@H](CCC(N)=O)C(=O)N[C@@H](CC(=O)O)C(=O)N[C@@H](Cc1ccccc1)C(=O)N[C@H](C(=O)N[C@@H](CC(N)=O)C(=O)N[C@@H](Cc1c[nH]c2ccccc12)C(=O)N[C@@H](CC(C)C)C(=O)N[C@@H](CC(C)C)C(=O)N[C@@H](C)C(=O)NCC(=O)NCC(=O)N1CCC[C@H]1C(=O)N[C@@H](CO)C(=O)N[C@@H](CO)C(=O)NCC(=O)N[C@@H](C)C(=O)N1CCC[C@H]1C(=O)N1CCC[C@H]1C(=O)N1CCC[C@H]1C(=O)N[C@@H](CO)C(N)=O)C(C)C [Example 10] (H-Y[dA]EGTFISDYSILLDKK([AEEA-AEEA-γGlu-C20 diacid])HQQDFVNWLLAGGPSSGAPPPS-NH2)	0.159	60.7
CC[C@H](C)[C@H](NC(=O)[C@H](Cc1ccccc1)NC(=O)[C@@H](NC(=O)CNC(=O)[C@H](CCC(=O)O)NC(=O)C(C)(C)NC(=O)[C@@H](N)Cc1ccc(O)cc1)[C@@H](C)O)C(=O)N[C@@H](CO)C(=O)N[C@@H](CC(=O)O)C(=O)N[C@@H](Cc1ccc(O)cc1)C(=O)N[C@@H](CO)C(=O)N[C@H](C(=O)N[C@@](C)(CC(C)C)C(=O)N[C@@H](CC(C)C)C(=O)N[C@@H](CC(=O)O)C(=O)N[C@@H](CCC(=O)O)C(=O)N[C@@H](CCCCNC(=O)COCCOCCNC(=O)COCCOCCNC(=O)CC[C@H](NC(=O)CCCCCCCCCCCCCCCCCCC(=O)O)C(=O)O)C(=O)N[C@@H](Cc1c[nH]cn1)C(=O)N[C@@H](CCC(N)=O)C(=O)NC(C)(C)C(=O)N[C@@H](CC(=O)O)C(=O)N[C@@H](Cc1ccccc1)C(=O)N[C@H](C(=O)N[C@@H](CCC(=O)O)C(=O)N[C@@H](Cc1ccncc1)C(=O)N[C@@H](CC(C)C)C(=O)N[C@@H](CC(C)C)C(=O)N[C@@H](C)C(=O)N[C@H](C(=O)NCC(=O)N1CCC[C@H]1C(=O)N[C@@H](CO)C(=O)N[C@@H](CO)C(=O)NCC(=O)N[C@@H](C)C(=O)N1CCC[C@H]1C(=O)N1CCC[C@H]1C(=O)N1CCC[C@H]1C(=O)N[C@@H](CO)C(N)=O)[C@@H](C)O)C(C)C)[C@@H](C)CC [Example 83] (H-Y[Aib]EGTFISDYSI[αMeL]LDEK([AEEA-AEEA-γGlu-C20 diacid])HQ[Aib]DFVE[4Pal]LLATGPSSGAPPPS-NH2)	0.116	452
CC[C@H](C)[C@H](NC(=O)[C@H](Cc1ccccc1)NC(=O)[C@@H](NC(=O)CNC(=O)[C@H](CCC(=O)O)NC(=O)C(C)(C)NC(=O)[C@@H](N)Cc1ccc(O)cc1)[C@@H](C)O)C(=O)N[C@@H](CO)C(=O)N[C@@H](CC(=O)O)C(=O)N[C@@H](Cc1ccc(O)cc1)C(=O)N[C@@H](CO)C(=O)N[C@H](C(=O)N[C@@](C)(CC(C)C)C(=O)N[C@@H](CC(C)C)C(=O)N[C@@H](CC(=O)O)C(=O)N[C@@H](CCCN)C(=O)N[C@@H](CCCCNC(=O)COCCOCCNC(=O)COCCOCCNC(=O)CC[C@H](NC(=O)CCCCCCCCCCCCCCCCCCC(=O)O)C(=O)O)C(=O)N[C@@H](Cc1c[nH]cn1)C(=O)N[C@@H](CCC(N)=O)C(=O)NC(C)(C)C(=O)N[C@@H](CC(=O)O)C(=O)N[C@@H](Cc1ccccc1)C(=O)N[C@H](C(=O)N[C@@H](CCC(=O)O)C(=O)N[C@@H](Cc1ccncc1)C(=O)N[C@@H](CC(C)C)C(=O)N[C@@H](CC(C)C)C(=O)N[C@@H](CCC(=O)O)C(=O)N[C@@H](CCC(N)=O)C(=O)NCC(=O)N1CCC[C@H]1C(=O)N[C@@H](CO)C(=O)N[C@@H](CO)C(=O)NCC(=O)N[C@@H](C)C(=O)N1CCC[C@H]1C(=O)N1CCC[C@H]1C(=O)N1CCC[C@H]1C(=O)N[C@@H](CO)C(N)=O)C(C)C)[C@@H](C)CC [Example 81] (H-Y[Aib]EGTFISDYSI[αMeL]LD[Orn]K([AEEA-AEEA-γGlu-C20 diacid])HQ[Aib]DFVE[4Pal]LLEQGPSSGAPPPS-NH2)	0.0374	714
CC[C@H](C)[C@H](NC(=O)[C@H](CO)NC(=O)[C@H](Cc1ccc(O)cc1)NC(=O)[C@H](CC(=O)O)NC(=O)[C@H](CO)NC(=O)[C@@H](NC(=O)[C@H](Cc1ccccc1)NC(=O)[C@@H](NC(=O)CNC(=O)[C@H](CCC(=O)O)NC(=O)C(C)(C)NC(=O)[C@@H](N)Cc1ccc(O)cc1)[C@@H](C)O)[C@@H](C)CC)C(=O)N[C@@H](CC(C)C)C(=O)N[C@@H](CC(C)C)C(=O)N[C@@H](CC(=O)O)C(=O)N[C@@H](CCCCN)C(=O)N[C@@H](CCCCNC(=O)COCCOCCNC(=O)COCCOCCNC(=O)CC[C@H](NC(=O)CCCCCCCCCCCCCCCCC(=O)O)C(=O)O)C(=O)N[C@@H](Cc1c[nH]cn1)C(=O)N[C@@H](CCC(N)=O)C(=O)NC(C)(C)C(=O)N[C@@H](CC(=O)O)C(=O)N[C@@H](Cc1ccccc1)C(=O)N[C@H](C(=O)N[C@@H](CC(N)=O)C(=O)N[C@@H](Cc1ccc(O)cc1)C(=O)N[C@@H](CC(C)C)C(=O)N[C@@H](CC(C)C)C(=O)N[C@@H](C)C(=O)N[C@@H](C)C(=O)NCC(=O)N1CCC[C@H]1C(=O)N[C@@H](CO)C(=O)N[C@@H](CO)C(=O)NCC(=O)N[C@@H](C)C(=O)N1CCC[C@H]1C(=O)N1CCC[C@H]1C(=O)N1CCC[C@H]1C(=O)N[C@@H](CO)C(N)=O)C(C)C [Example 31] (H-Y[Aib]EGTFISDYSILLDKK([AEEA-AEEA-γGlu-C18 diacid])HQ[Aib]DFVNYLLAAGPSSGAPPPS-NH2)	0.0473	266
CC[C@H](C)[C@H](NC(=O)[C@H](CO)NC(=O)[C@H](Cc1ccc(O)cc1)NC(=O)[C@H](CC(=O)O)NC(=O)[C@H](CO)NC(=O)[C@@H](NC(=O)[C@H](Cc1ccccc1)NC(=O)[C@@H](NC(=O)CNC(=O)[C@H](CCC(=O)O)NC(=O)C(C)(C)NC(=O)[C@@H](N)Cc1ccc(O)cc1)[C@@H](C)O)[C@@H](C)CC)C(=O)N[C@@H](CC(C)C)C(=O)N[C@@H](CC(C)C)C(=O)N[C@@H](CC(=O)O)C(=O)N[C@@H](CCCCN)C(=O)N[C@@H](CCCCNC(=O)COCCOCCNC(=O)COCCOCCNC(=O)CC[C@H](NC(=O)CCCCCCCCCCCCCCCCCCC(=O)O)C(=O)O)C(=O)N[C@@H](C)C(=O)N[C@@H](CCC(N)=O)C(=O)NC(C)(C)C(=O)N[C@@H](CC(=O)O)C(=O)N[C@@H](Cc1ccccc1)C(=O)N[C@H](C(=O)N[C@@H](CC(N)=O)C(=O)N[C@@H](Cc1c[nH]c2ccccc12)C(=O)N[C@@H](CC(C)C)C(=O)N[C@@H](CC(C)C)C(=O)N[C@@H](C)C(=O)N[C@@H](CCC(N)=O)C(=O)NCC(=O)N1CCC[C@H]1C(=O)N[C@@H](CO)C(=O)N[C@@H](CO)C(=O)NCC(=O)N[C@@H](C)C(=O)N1CCC[C@H]1C(=O)N1CCC[C@H]1C(=O)N1CCC[C@H]1C(=O)N[C@@H](CO)C(N)=O)C(C)C [Example 8] (H-Y[Aib]EGTFISDYSILLDKK([AEEA-AEEA-γGlu-C20 diacid])AQ[Aib]DFVNWLLAQGPSSGAPPPS-NH2)	0.027	38.1
